Measured values: paper PMC8009520, “Exploration of TRPM8 Binding Sites by β-Carboline-Based Antagonists and Their In Vitro Characterization and In Vivo Analgesic Activities” (Journal of Medicinal Chemistry, 2020)
Like-named read-outs stand apart in the source and are kept apart here.

Experiments:
human TRPM8 [1] = molecular target: T1, human TRPM8 (Homo sapiens, UniProt Q7Z2W7); assay: cell-based; conditions: HEK293, read-out: % Inhibition 300 μM menthol-evoked currents at 300 nM compounds, HEK-293 cells expressing human TRPM8, compound 300 nM
[2] = molecular target: T2, rat isoform of TRPM8 channels (Rattus norvegicus, UniProt Q8R455); assay: Ca2+ fluorimetric assay, menthol-activated channel; assay type: cell-based
T2 construct: expressed in transfected cells
Protocol: TRPM8 blocker activity of all synthesized compounds was tested by Ca^2+ fluorimetric assays using HEK-293 cells stably expressing the rat isoform of TRPM8 channels, using menthol and AMTB as prototypical agonist and antagonist, respectively.
For measurement of the potency of the compounds, fluorimetric experiments were performed using HEK-293 cells (CRL-1573TM, American Type Culture Collection, LGC Promochem, Molsheim, France) that stably express rat TRPM8. The cells were seeded in 96-well plates (Corning Incorporated, Corning, NY) at a cell density of 40 000 cells 2 days before treatment. On the day of treatment, the medium was replaced with 100 μL of the dye loading solution Fluo-4 NW supplemented with probenecid 2.5 mM.
The tested molecules dissolved in DMSO were added at the desired concentrations, and the plates were incubated in darkness at 37 °C in a humidified atmosphere of 5% CO2 for 60 min. The fluorescence was measured using instrument settings appropriate for excitation at 485 nm and emission at 535 nm (POLARstar Omega BMG LABtech). A baseline recording of four cycles was recorded prior to stimulation with the agonist (100 μM menthol for TRPM8). The TRPM8 antagonist, 10 μM AMTB, was added to the medium containing the corresponding agonist to induce channel blockade. The changes in fluorescence intensity were recorded during 15 cycles more. The higher concentration of DMSO used in the experiment was added to the control wells. The cells’ fluorescence was measured before and after the addition of various concentrations of test compounds. The fluorescence values obtained are normalized to that prompted by the corresponding agonist (for channel activating compounds) or upon agonist and antagonist coexposure (for channel blocker compounds).

human TRPM8 [3] = molecular target: T1, human TRPM8; conditions: HEK-293 cells expressing human TRPM8, compound 300 nM
[4] = In vitro metabolic stability using liver microsomes; assay type: in vitro ADME, human; conditions: protocol II, NADPH and UDP-GlcUA, 37 °C, 60 min
Protocol: Compound 4 was used as reference, considering that its main pitfall was represented by metabolic instability that the newly synthesized compounds were aimed in overcoming. […] Each sample (2.5 mM) was incubated with 100 mM phosphate buffer (pH 7.4) and 20 mg/mL of liver microsomes (Thermo Fisher Scientific, Bremen, Germany). After preincubation in water bath for 5 min, the mixture was incubated with 20 mM NADPH (protocol I) at 37 °C for 60 min in a Thermomixer comfort (Eppendorf, Hamburg, Germany). For the measurement of UGT activity the microsomes were preincubated with alamethicin, which forms pores in microsomal membranes, promoting access of substrate and cofactor to UGT enzymes. Subsequently, each sample was incubated with 100 mM phosphate buffer, 500 mM magnesium chloride, 10 mM NADPH, and 20 mM UDP-GlcUA at 37 °C for 60 min. Finally, the reactions from both protocols (protocols I and II) were stopped by the addition of 200 μL of ice-cold methanol, and then samples were centrifuged at 10 000 rpm at 25 °C for 5 min (Eppendorf microcentrifuge 5424, Hamburg, Germany). The supernatants were collected and injected in UHPLC-PDA. The control at 0 min was obtained by addition of the organic solvent immediately after incubation with microsomes. […] The extent of metabolism is expressed as a percentage of the parent compound turnover using the following equation, as previously described:[43] […]

hTRPA1 = molecular target: T3, hTRPA1 (Homo sapiens, UniProt O75762); assay: Selectivity fluorimetric assay, HEK-293 cells; assay type: cell-based; conditions: AITC as reference agonist
T3 construct: expressed in transfected cells; host or cells: HEK-293, stably transfected

Swiss CD1 mice = assay: CCI neuropathic pain model, thermal gradient ring; assay type: in vivo
Excerpt: Further we investigated the efficacy of 31a in a chronic constriction injury (CCI) model of neuropathic pain, using a thermal gradient ring assay. This assay deeply differs from the canonical reflexive measures of nociception, in which the end point is withdrawal to a noxious stimulus, a fact that has been questioned during the past years for their unsatisfactory translation.[34] In particular, this test integrates information on temperature perception distinguishing exploratory behavior from thermal preference behavior.[35a]
The mean temperature to which the sham animal located during the observation time was 27.9 °C ± 0.35 °C (Figure 7A), and no statistical differences were evidenced at the different time points (Figure 7B). […] It is questionable why this transient effect was recorded, but it must be considered that TRPM8 antagonists are able to decrease the body temperature.
Neuropathic pain behavior was induced by ligation of the sciatic nerve as described previously.[27d] […] Drug effects were evaluated 7 and 14 days after ligation.
We utilized the thermal gradient ring from Ugo-Basile previously using a modified protocol from Touska et al., 2016.[35] […] On day 2, mice were injected and 30 min after were placed in the apparatus and measured for 60 min using 15–40 °C. […]

hNav1.7 = molecular target: T4, hNav1.7 (Homo sapiens, UniProt Q15858); assay: Selectivity fluorimetric assay, HEK-293 cells; assay type: cell-based; conditions: veratridine as reference agonist
T4 construct: expressed in transfected cells; host or cells: HEK-293, stably transfected

hTRPV1 = molecular target: T5, hTRPV1 (Homo sapiens, UniProt Q8NER1); assay: Selectivity fluorimetric assay, CHO-K1 cells; assay type: cell-based; conditions: capsaicine as reference agonist
T5 construct: expressed in transfected cells; host or cells: CHO-K1, stably transfected

C57/BL6 mice = assay: Oxaliplatin-induced cold allodynia, acetone drop method; assay type: in vivo
Protocol: This effect was still evident 30 min after administration of a 30 μg dose (Figure 6).
Data are given as the mean ± SEM n = 6. Statistical analysis was two-way ANOVA followed by post hoc Bonferroni test by multiple comparison: ***p < 0.001, ****p < 0.0001.
For the oxaliplatin-induced neuropathic pain assay, oxaliplatin (Tocris) was dissolved in water with gentle warming and was subcutaneously (sc) injected on days 1, 3, and 5 at a 6 mg/kg dose. The day 7 after administration, experiments were performed. Together with oxaliplatin injection, saline and a 5% mannitol solution were intraperitoneally injected to prevent kidney damage and dehydration. 31a stock was prepared in DMSO (Sigma-Aldrich) and diluted in saline for injections.
Cold chemical thermal sensitivity was assessed using acetone drop method.[18b] Mice were placed in a metal mesh cage and allowed to habituate for approximately 30 min in order to acclimatize them. Freshly dispensed acetone drop (10 μL) was applied gently onto the mid-plantar surface of the hind paw. Cold chemical sensitive reaction with respect to paw licking was recorded as a positive response (nociceptive pain response). The responses were measured for 20 s with a digital stopwatch. For each measurement, the paw was sampled twice and the mean was calculated. The interval between each application of acetone was approximately 5 min.

TRPM8 = test system: TRPM8; design: method as in PMID 26847872, PMID 25125580; conditions: patch-clamp recordings; 18b; cited from earlier work
[5] = HEK-293 cells stably expressing rat TRPM8, menthol as agonist, mean ± SD of at least three measurements, read-out: IC50
[6] = Table 2, Ca2+ fluorimetric assay, read-out: IC50 Ca2+

T2 sequence (Q8R455 whole entry, canonical isoform): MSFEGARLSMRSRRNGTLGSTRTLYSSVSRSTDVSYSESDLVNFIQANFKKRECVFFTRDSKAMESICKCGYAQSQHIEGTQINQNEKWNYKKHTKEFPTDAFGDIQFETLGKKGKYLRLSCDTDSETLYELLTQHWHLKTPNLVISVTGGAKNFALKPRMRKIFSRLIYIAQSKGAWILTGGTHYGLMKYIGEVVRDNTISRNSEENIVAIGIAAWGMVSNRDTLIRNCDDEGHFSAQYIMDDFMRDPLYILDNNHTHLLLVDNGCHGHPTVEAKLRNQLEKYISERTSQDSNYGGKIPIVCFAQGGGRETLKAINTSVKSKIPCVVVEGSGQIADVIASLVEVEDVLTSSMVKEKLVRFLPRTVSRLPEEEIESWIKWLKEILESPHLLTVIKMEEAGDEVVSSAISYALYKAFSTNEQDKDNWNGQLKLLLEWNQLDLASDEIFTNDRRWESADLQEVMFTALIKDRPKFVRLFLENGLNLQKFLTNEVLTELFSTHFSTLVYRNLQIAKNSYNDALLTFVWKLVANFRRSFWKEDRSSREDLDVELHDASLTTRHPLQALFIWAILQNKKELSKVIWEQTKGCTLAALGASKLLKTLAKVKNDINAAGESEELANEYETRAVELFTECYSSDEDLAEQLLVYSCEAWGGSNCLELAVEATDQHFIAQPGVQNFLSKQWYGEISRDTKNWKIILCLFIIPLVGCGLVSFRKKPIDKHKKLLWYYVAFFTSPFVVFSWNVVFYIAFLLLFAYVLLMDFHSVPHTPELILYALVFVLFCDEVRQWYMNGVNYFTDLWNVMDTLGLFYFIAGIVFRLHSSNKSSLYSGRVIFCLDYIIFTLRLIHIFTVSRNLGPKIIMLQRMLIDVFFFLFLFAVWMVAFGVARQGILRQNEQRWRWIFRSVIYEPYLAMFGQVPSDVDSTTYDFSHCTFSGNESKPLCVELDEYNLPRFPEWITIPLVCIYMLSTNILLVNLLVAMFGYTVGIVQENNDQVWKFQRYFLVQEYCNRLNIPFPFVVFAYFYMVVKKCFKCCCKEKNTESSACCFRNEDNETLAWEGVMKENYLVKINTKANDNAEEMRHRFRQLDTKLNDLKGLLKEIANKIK
T1 sequence (Q7Z2W7 whole entry, canonical isoform): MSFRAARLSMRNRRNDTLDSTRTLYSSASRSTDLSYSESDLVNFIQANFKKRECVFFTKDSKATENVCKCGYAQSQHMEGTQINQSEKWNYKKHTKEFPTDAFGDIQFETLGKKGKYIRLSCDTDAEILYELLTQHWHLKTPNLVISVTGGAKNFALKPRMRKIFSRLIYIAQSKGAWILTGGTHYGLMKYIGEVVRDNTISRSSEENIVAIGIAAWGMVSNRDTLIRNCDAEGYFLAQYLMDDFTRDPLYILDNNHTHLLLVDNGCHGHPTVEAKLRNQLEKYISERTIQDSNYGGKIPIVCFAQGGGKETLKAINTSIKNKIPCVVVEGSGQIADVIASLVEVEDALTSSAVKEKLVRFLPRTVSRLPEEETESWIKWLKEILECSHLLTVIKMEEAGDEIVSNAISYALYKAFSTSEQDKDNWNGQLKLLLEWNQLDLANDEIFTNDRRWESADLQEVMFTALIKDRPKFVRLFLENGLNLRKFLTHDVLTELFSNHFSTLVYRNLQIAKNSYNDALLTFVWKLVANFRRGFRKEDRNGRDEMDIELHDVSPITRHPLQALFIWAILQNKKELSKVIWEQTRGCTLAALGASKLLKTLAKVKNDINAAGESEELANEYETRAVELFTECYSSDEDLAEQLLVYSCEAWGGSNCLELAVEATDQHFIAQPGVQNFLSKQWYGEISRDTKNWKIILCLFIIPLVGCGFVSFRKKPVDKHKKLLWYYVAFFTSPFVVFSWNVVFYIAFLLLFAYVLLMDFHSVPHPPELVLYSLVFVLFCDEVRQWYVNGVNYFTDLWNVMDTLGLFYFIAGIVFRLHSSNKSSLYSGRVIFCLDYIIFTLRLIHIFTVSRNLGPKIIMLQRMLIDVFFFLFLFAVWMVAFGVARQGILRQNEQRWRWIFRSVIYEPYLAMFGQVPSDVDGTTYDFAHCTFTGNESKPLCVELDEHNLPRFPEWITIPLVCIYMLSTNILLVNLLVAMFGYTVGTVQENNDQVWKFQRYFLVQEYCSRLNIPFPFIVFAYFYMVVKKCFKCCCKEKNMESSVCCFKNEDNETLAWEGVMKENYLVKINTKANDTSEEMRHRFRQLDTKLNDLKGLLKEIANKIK
T3 sequence (O75762 whole entry): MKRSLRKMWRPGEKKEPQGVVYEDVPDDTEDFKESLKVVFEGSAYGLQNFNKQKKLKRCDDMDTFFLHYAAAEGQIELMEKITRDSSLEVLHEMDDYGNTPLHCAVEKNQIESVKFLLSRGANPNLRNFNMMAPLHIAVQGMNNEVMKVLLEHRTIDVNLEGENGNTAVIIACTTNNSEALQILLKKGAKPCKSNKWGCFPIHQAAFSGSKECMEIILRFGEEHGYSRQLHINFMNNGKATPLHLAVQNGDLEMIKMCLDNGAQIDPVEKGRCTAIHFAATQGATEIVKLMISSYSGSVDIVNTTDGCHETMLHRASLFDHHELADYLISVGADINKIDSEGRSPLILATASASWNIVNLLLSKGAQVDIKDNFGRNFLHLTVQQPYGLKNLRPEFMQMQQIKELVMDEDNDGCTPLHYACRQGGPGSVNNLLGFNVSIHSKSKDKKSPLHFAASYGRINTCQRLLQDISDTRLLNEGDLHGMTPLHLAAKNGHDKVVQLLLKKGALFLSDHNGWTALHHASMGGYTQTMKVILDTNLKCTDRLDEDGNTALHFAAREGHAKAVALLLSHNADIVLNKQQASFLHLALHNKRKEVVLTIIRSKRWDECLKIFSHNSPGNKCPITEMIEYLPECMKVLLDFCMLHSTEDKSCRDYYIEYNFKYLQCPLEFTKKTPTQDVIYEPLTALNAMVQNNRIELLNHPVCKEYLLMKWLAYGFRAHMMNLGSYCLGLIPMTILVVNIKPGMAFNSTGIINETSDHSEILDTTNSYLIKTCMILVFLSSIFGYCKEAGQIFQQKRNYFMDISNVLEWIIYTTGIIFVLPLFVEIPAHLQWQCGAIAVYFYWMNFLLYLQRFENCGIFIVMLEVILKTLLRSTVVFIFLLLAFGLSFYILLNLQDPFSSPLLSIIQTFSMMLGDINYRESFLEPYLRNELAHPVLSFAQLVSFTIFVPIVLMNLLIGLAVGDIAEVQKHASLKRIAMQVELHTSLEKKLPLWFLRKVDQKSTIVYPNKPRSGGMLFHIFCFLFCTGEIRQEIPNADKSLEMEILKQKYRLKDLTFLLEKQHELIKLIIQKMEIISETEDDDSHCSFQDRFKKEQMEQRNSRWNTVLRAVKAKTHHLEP
T5 sequence (Q8NER1 whole entry): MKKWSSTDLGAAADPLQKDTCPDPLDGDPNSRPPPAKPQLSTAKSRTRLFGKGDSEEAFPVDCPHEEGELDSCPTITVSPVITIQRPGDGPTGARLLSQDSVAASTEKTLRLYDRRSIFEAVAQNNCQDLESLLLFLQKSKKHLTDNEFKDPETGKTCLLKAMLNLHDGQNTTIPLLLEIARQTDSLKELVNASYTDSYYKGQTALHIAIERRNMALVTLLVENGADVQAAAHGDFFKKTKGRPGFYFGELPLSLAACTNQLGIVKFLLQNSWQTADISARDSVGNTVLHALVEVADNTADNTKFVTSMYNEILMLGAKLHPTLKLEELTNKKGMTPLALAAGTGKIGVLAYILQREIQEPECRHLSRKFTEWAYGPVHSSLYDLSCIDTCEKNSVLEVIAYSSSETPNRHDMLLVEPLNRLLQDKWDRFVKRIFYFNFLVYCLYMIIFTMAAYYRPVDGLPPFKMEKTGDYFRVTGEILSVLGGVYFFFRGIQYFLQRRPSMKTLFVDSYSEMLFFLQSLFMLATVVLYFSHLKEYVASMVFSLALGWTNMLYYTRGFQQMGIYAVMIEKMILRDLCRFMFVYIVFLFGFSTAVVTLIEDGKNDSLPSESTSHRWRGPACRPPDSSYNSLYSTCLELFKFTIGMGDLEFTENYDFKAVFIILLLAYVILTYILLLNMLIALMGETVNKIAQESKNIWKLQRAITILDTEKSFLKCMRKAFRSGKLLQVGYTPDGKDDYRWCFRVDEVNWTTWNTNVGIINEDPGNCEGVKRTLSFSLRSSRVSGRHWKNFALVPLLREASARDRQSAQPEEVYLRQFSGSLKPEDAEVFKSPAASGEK

Row | inhibition at 0.3 µM (human TRPM8 [1]) | % Inhibition 300 μM menthol-evoked currents at 300 nM compounds (human TRPM8 [3]) | SMILES | IC50 [2, 5] | IC50 [2, 6] | metabolic turnover, phase I + phase II [4] | activity as agonist or antagonist on TRPA1 (hTRPA1) | rTRPM8 IC50 (calcium microfluorimetric assays) ([2]; supplementary xlsx) | mean preferred temperature (Swiss CD1 mice; CCI mice 14 days after ligation, 11.5 mg/kg ip, gradient 15-40 °C) | effect on temperature preferences (Swiss CD1 mice; sham-mice) | activity as agonist or antagonist on Nav1.7 (hNav1.7) | activity as agonist or antagonist on TRPV1 (hTRPV1) | inhibition of OXP-induced cold allodynia (paw licking) (C57/BL6 mice; 1 μg sc, single administration) | inhibition of OXP-induced cold allodynia (paw licking) (C57/BL6 mice; 10 μg sc) | inhibition of OXP-induced cold allodynia (paw licking) (C57/BL6 mice; 30 μg sc) | inhibition of OXP-induced cold allodynia 30 min after administration (C57/BL6 mice; 30 μg sc, 30 min) | time of maximum inhibitory effect (C57/BL6 mice; 10 and 30 μg sc) | IC50 (TRPM8)
1 | 34% | 34.1±9.6% | O=C(O)CC[C@H]1N[C@H](C(=O)NCc2ccc(F)cc2)Cc2c1[nH]c1ccccc21 [12a, 3-((1R,3S)-3-((4-Fluorobenzyl)carbamoyl)-2,3,4,9-tetrahydro-1H-pyrido[3,4-b]indol-1-yl)propanoic Acid] | 5 ± 1.2 µM | 5 ± 1.2 µM | – | – | – | – | – | – | – | – | – | – | – | – | –
2 | – | – | O=C1[C@@H]2Cc3c([nH]c4ccccc34)[C@@H](c3ccc(Cl)cc3)N2C(=O)N1Cc1ccc(F)cc1 [31a, (5R,11aS)-5-(4-Chlorophenyl)-2-(4-fluorobenzyl)-5,6,11,11a-tetrahydro-1H-imidazo[1′,5′:1,6]pyrido[3,4-b]indole-1,3(2H)-dione] | 0.5 ± 0.3 µM | >30 µM | 46.0 ± 2.3% | no activity as agonists or antagonists | > 30 µM | 33.30 °C | No effects | no activity as agonists or antagonists | no activity as agonists or antagonists | not effective | remarkable inhibitory effect | remarkable inhibitory effect | still evident | 15 min | –
3 | – | – | c1ccc(CN(CCc2c[nH]c3ccccc23)Cc2ccccc2)cc1 [compound 3] | – | – | – | – | – | – | – | – | – | – | – | – | – | – | 0.367 µM
